Legend:
Assay type in all cases: functional
Rattus norvegicus [1] = organism: Rattus norvegicus; test: Effect on colon large bowel tumorigenesis in rats fed with cholesterol and cholic acid diet(Group 2 diet)
Rattus norvegicus [2] = organism: Rattus norvegicus; test: Effect on colon large bowel tumorigenesis in rats fed with safflower oil diet(Group 1 diet)
Rattus norvegicus [3] = organism: Rattus norvegicus; test: Effect on colon small bowel tumorigenesis in rats fed with cholesterol and cholic acid diet(Group 2 diet)
Rattus norvegicus [4] = organism: Rattus norvegicus; test: Effect on colon small bowel tumorigenesis in rats fed with safflower oil diet(Group 1 diet)
Rattus norvegicus [5] = organism: Rattus norvegicus; test: Average number of tumors per rat in colon large bowel tumorigenesis in rats fed with cholesterol and cholic acid diet(Group 2 diet)
Rattus norvegicus [6] = organism: Rattus norvegicus; test: Average number of tumors per rat in colon large bowel tumorigenesis in rats fed with safflower oil diet(Group 1 diet)
Rattus norvegicus [7] = organism: Rattus norvegicus; test: Average number of tumors per rat in colon small bowel tumorigenesis in rats fed with cholesterol and cholic acid diet(Group 2 diet)
Rattus norvegicus [8] = organism: Rattus norvegicus; test: Average number of tumors per rat in colon small bowel tumorigenesis in rats fed with safflower oil diet(Group 1 diet)

Q: Which results are given for `NC[C@@H]1O[C@H](O[C@H]2[C@@H](O)[C@H](O[C@@H]3[C@@H](O)[C@H](N)C[C@H](N)[C@H]3O[C@H]3O[C@H](CN)[C@@H](O)[C@H](O)[C@H]3N)O[C@@H]2CO)[C@H](N)[C@@H](O)[C@@H]1O` [FRAMYCETIN]?
A: Incidence (Rattus norvegicus [1]): 80%; Incidence (Rattus norvegicus [2]): 98%; Incidence (Rattus norvegicus [3]): 25%; Incidence (Rattus norvegicus [4]): 22%; No. of tumors (Rattus norvegicus [5]): 1.13; No. of tumors (Rattus norvegicus [6]): 3; No. of tumors (Rattus norvegicus [7]): 0.5; No. of tumors (Rattus norvegicus [8]): 0.5
